Test results as given in ChEMBL document CHEMBL5543101, “Identification of 3-aryl-5-methyl-isoxazole-4-carboxamide derivatives and analogs as novel HIF-2α agonists through docking-based virtual screening and structural modification” (Eur J Med Chem, 2024).

Experiments:
[1] = molecular target: Endothelial PAS domain-containing protein 1 (Homo sapiens, UniProt Q99814)
Description: Agonist activity at HIF-2alpha in human 786-0 cells assessed as increase in VEGF secretion incubated for 20 hrs by ELISA

[2] = Clearance in male Sprague-Dawley rat at 0.5 mg/kg, iv measured after 32 hrs by LC-MS/MS analysis; details: in vivo
[3] = MRT (0 to t) in male Sprague-Dawley rat at 0.5 mg/kg, iv measured after 32 hrs by LC-MS/MS analysis; details: in vivo
[4] = Volume of distribution at steady state in male Sprague-Dawley rat at 0.5 mg/kg, iv measured after 32 hrs by LC-MS/MS analysis; details: in vivo
[5] = in vivo; details: male, Sprague-Dawley, rat, iv, 0.5 mg/kg
Description: Tmax in male Sprague-Dawley rat at 0.5 mg/kg, iv measured after 32 hrs by LC-MS/MS analysis

[6] = in vivo; details: male, Sprague-Dawley, rat, iv, 0.5 mg/kg; remark: listed apart in the source
Description: Cmax in male Sprague-Dawley rat at 0.5 mg/kg, iv measured after 32 hrs by LC-MS/MS analysis

[7] = in vivo; details: male, Sprague-Dawley, rat, po, 5 mg/kg
Description: Tmax in male Sprague-Dawley rat at 5 mg/kg, po measured after 32 hrs by LC-MS/MS analysis

[8] = Clearance in male Sprague-Dawley rat at 5 mg/kg, po measured after 32 hrs by LC-MS/MS analysis; details: in vivo
[9] = MRT (0 to t) in male Sprague-Dawley rat at 5 mg/kg, po measured after 32 hrs by LC-MS/MS analysis; details: in vivo
[10] = Half-life in male Sprague-Dawley rat at 0.5 mg/kg, iv measured after 32 hrs by LC-MS/MS analysis; details: in vivo
[11] = in vivo; details: male, Sprague-Dawley, rat, po, 5 mg/kg; remark: listed apart in the source
Description: Oral bioavailability in male Sprague-Dawley rat at 5 mg/kg measured after 32 hrs by LC-MS/MS analysis

[12] = Half-life in male Sprague-Dawley rat at 5 mg/kg, po measured after 32 hrs by LC-MS/MS analysis; details: in vivo
[13] = in vivo; details: male, Sprague-Dawley, rat, iv, 0.5 mg/kg; remark: listed apart in the source
Description: AUC (0 to t) in male Sprague-Dawley rat at 0.5 mg/kg, iv measured after 32 hrs by LC-MS/MS analysis

[14] = in vivo; details: male, Sprague-Dawley, rat, po, 5 mg/kg; remark: listed apart in the source
Description: AUC (0 to t) in male Sprague-Dawley rat at 5 mg/kg, po measured after 32 hrs by LC-MS/MS analysis

[15] = in vivo; details: male, Sprague-Dawley, rat, po, 5 mg/kg; remark: listed apart in the source
Description: Cmax in male Sprague-Dawley rat at 5 mg/kg, po measured after 32 hrs by LC-MS/MS analysis

Chain of Endothelial PAS domain-containing protein 1 (Q99814 whole entry, the tested form may be a part): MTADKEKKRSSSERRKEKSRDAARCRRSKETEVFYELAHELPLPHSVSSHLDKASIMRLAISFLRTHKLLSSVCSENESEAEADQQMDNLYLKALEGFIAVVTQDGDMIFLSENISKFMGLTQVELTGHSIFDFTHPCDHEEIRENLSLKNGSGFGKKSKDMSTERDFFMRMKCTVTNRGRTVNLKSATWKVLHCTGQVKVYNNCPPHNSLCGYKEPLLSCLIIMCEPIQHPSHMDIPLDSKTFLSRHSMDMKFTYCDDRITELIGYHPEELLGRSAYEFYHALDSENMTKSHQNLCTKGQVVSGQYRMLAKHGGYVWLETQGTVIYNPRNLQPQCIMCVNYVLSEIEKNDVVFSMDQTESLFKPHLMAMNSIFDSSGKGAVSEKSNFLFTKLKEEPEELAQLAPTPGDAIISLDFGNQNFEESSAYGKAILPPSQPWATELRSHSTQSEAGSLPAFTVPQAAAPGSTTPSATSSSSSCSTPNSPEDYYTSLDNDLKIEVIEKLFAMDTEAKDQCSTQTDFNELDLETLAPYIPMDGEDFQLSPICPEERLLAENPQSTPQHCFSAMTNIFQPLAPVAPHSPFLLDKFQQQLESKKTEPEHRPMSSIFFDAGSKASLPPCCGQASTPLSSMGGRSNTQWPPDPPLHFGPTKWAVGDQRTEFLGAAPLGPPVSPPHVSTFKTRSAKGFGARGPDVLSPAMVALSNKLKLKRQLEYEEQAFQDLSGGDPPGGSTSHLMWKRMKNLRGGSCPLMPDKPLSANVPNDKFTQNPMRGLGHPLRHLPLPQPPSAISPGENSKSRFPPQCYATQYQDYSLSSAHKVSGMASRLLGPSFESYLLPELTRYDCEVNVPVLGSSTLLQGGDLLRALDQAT

Cc1onc(-c2ccccc2Cl)c1C(=O)Nc1cc(C(F)(F)F)ccn1
EC50 [1]: 5.62 µM

Cc1onc(-c2ccccc2Cl)c1C(=O)N1CCOCC1
EC50 [1]: 9.86 µM

Cc1onc(-c2ccccc2F)c1C(=O)Nc1cccc(C(F)(F)F)c1
EC50 [1]: 10 µM

Nc1ncc(C(=O)Nc2cccc(C(F)(F)F)c2)c(-c2ccccc2Cl)n1
EC50 [1]: 5.01 µM

Cc1onc(-c2ccccc2Cl)c1C(=O)Nc1cccc(C#N)c1
EC50 [1]: 6.21 µM

O=C(Nc1cccc(C(F)(F)F)c1)c1cn[nH]c1-c1ccccc1Cl
clearance at 32 h [2]: 5.33 mL/min/kg
MRT last at 32 h [3]: 1.54 h
Vd at 32 h [4]: 0.53 L/kg
Tmax at 32 h [5]: 1.8 min
Cmax at 32 h [6]: 1620 ng/mL
Tmax at 32 h [7]: 1.33 h
CL/F at 32 h [8]: 8.83 mL/min/kg
EC50 [1]: 1.78 µM
MRT last at 32 h [9]: 4.6 h
half-life at 32 h [10]: 2.53 h
bioavailability at 32 h [11]: 68.7%
half-life at 32 h [12]: 5.09 h
AUC(0-t) at 32 h [13]: 1610 ng·h/mL
AUC(0-t) at 32 h [14]: 11100 ng·h/mL
Cmax at 32 h [15]: 1290 ng/mL

Cc1onc(-c2ccccc2OC(F)F)c1C(=O)Nc1cccc(C(F)(F)F)c1
Tmax at 32 h [5]: 1.8 min
Cmax at 32 h [6]: 285 ng/mL
Tmax at 32 h [7]: 1.5 h
EC50 [1]: 2.29 µM
MRT last at 32 h [9]: 7.79 h
bioavailability at 32 h [11]: 7.02%
AUC(0-t) at 32 h [13]: 278 ng·h/mL
AUC(0-t) at 32 h [14]: 194 ng·h/mL
Cmax at 32 h [15]: 35.9 ng/mL
